The structures appear in SMILES notation.

Assay [1] deals with RARs or RXRs. Briefly: Co-transfection assay, RAR and RXR receptors. The assay is classed as cell-based. The following applies: for potency profile compared to 9-cis retinoic acid (in words): relative to 9-cis. The procedure: (§1) Utilizing the "cis-trans" or "co-transfection" assay described by Evans et al., Science, 240:889-95 (May 13, 1988), the disclosure of which is herein incorporated by reference, the retinoid compounds of the present invention were tested and found to have strong, specific activity as either selective RAR agonists, selective RXR agonists, or as pan-agonist activators of both RAR and RXR receptors. This assay is described in further detail in U.S. Pat. Nos. 4,981,784 and 5,071,773, the disclosures of which are incorporated herein by reference.
(§2) The co-transfection assay provides a method for identifying functional agonists which mimic, or antagonists which inhibit, the effect of native hormones, and quantifying their activity for responsive IR proteins. In this regard, the co-transfection assay mimics an in vivo system in the laboratory. Importantly, activity in the co-transfection assay correlates very well with known in vivo activity, such that the co-transfection assay functions as a qualitative and quantitative predictor of a tested compounds in vivo pharmacology. See, e.g., T. Berger et al. 41 J. Steroid Biochem. Molec. Biol. 773 (1992), the disclosure of which is herein incorporated by reference.
(§3) In the co-transfection assay, a cloned cDNA for an IR (e.g., human RARα, RARβ, RXRγ) under the control of a constitutive promoter (e.g., the SV 40 promoter) is introduced by transfection (a procedure to induce cells to take up foreign genes) into a background cell substantially devoid of endogenous IRs. This introduced gene directs the recipient cells to make the IR protein of interest. A second gene is also introduced (co-transfected) into the same cells in conjunction with the IR gene. This second gene, comprising the cDNA for a reporter protein, such as firefly luciferase (LUC), is controlled by an appropriate hormone responsive promoter containing a hormone response element (HRE). This reporter plasmid functions as a reporter for the transcription-modulating activity of the target IR. Thus, the reporter acts as a surrogate for the products (mRNA then protein) normally expressed by a gene under control of the target receptor and its native hormone.
(§4) The co-transfection assay can detect small molecule agonists or antagonists of target IRs. Exposing the transfected cells to an agonist ligand compound increases reporter activity in the transfected cells. This activity can be conveniently measured, e.g., by increasing luciferase production, which reflects compound-dependent, IR-mediated increases in reporter transcription. […] . Increasing concentrations of a suspected antagonist will decrease the reporter signal (e.g., luciferase production). The co-transfection assay is therefore useful to detect both agonists and antagonists of specific IRs. Furthermore, it determines not only whether a compound interacts with a particular IR, but whether this interaction mimics (agonizes) or blocks (antagonizes) the effects of the native regulatory molecules on target gene expression, as well as the specificity and strength of this interaction.
To determine RAR and/or RXR agonist activity of the compounds of the present invention, the CV-1 cells were transiently transfected by calcium phosphate coprecipitation according to the procedure of Berger et al., 41 J. Steroid Biochem. Mol. Biol., 733 (1992) with the following receptor expressing plasmids: pRShRARα: Giguere et al., 330 Nature, 624 (1987); pRShRARβ and pRShRARγ, Ishikawa et al., 4 Mol. Endocrin., 837 (1990); pRShRXRα, Mangelsdorf et al., 345 Nature, 224 (1990); and pRSmRXRβ and pRSmRXRγ, Mangelsdorf et al., 6 Genes & Devel., 329 (1992), the disclosures of which are herein incorporated by reference.

Assay [2] relates to ornithine decarboxylase (ODC). Briefly: Ornithine decarboxylase assay: inhibition of TPA induction of ODC. Format: cell-based.
The subject of assay [3] is RAR and RXR receptors. Briefly: Binding to the RAR and RXR receptors. The following applies: relative to ATRA (RAR) and 9-cis (RXR).
For assay [4], the system named is RARs. Briefly: Co-transfection assay, RAR subfamily. The assay is classed as cell-based, human. The procedure:
as §1, §2, §3
as §4, with “interaction. […]” for “interaction.”

Take `COc1ccc(/C(C)=C/C=C/C(C)=C/C(=O)O)cc1OC` [A, (2E,4E,6E)-3-methyl-7-(3,4-dimethoxyphenyl)octa-2,4,6-trienoic acid]: in assay [1], the “activity on any of the RARs or RXRs (in words)” value (shortened to “activity on any”) was “no, or virtually no, activity”. The same measure, in the same setting: for `COc1ccc(/C(C)=C/C=C/C(C)=C/C(=O)O)cc1` [B, (2E, 4E,6E)-3-methyl-7-(4-methoxyphenyl)octa-2,4,6-trienoic acid] the value was “no, or virtually no, activity”. With `COc1cc(C)c(/C=C/C=C/C=C(\C)C(=O)O)c(C)c1C` [C, (2E,4E,6E)-2-methyl-7-(2,3,6-trimethyl-4-methoxyphenyl)hepta-2,4,6-trienoic acid], the “activity on any” value in assay [1] was “no, or virtually no, activity”.

As to `CCOC(=O)/C=C(C)/C=C/C=C(\C)c1cc(C(C)(C)C)cc(C(C)(C)C)c1` [Compound 7, Ethyl (2E, 4E, 6E)-7-(315-di-t-butylphenyl)-3-methylocta-2,4,6-trienoate], in assay [2], the “retinoid activity of ester analogs (in words)” value is “exhibit retinoid activity”. For `CCOC(=O)/C=C(C)/C=C/C=C(/C)c1cc(C(C)(C)C)cc(C(C)(C)C)c1` [Compound 8, Ethyl (2E, 4E, 6Z)-7-(3,5-di-t-butylphenyl)-3-methylocta-2,4,6-trienoate], the “retinoid activity of ester analogs (in words)” value in assay [2] is on record as “exhibit retinoid activity”.

As for `C/C(=C/C=C/C(C)=C/C(=O)O)c1cc(C(C)(C)C)cc(C(C)(C)C)c1` [Compound 10, (2E, 4E, 6Z)-7-(3,5-Di-t-butylphenyl)-3-methylocta-2,4,6-trienoic acid], the “potency profile compared to 9-cis retinoic acid (in words)” value in assay [1] is listed as “superior potency profile”. Moreover, the “binding compared to ATRA and 9-cis (in words)” value in assay [3] is on record as “equal or superior binding”.

Consider `CC(/C=C/C=C1\CCOc2c1cc(C(C)(C)C)cc2C(C)(C)C)=C\C(=O)O` [Compound 39, (2E,4E,6E)-6-(6,8,-Di-t-butylchroman-4-ylidene)-3-methylhexa-2,4,6-trienoic acid], for which the “RAR activity (in words)” value in assay [4] is recorded as “extremely potent RAR active compounds”. For `CC(/C=C/C=C(\C)c1cc(C(F)(F)F)cc(C(F)(F)F)c1)=C\C(=O)O` [Compound 41, (2E, 4E, 6E)-7-(3,5-Di-trifluoromethylphenyl)-3-methylocta-2,4,6-trienoic acid], the “RAR activity (in words)” value in assay [4] is reported as “extremely potent RAR active compounds”. For the compound `C/C(=C/C=C/C(C)=C/C(=O)O)c1cc(C(C)C)cc(C(C)C)c1` [Compound 43, (2E, 4E, 6Z)-7-(3,5-Di-isopropylphenyl)-3-methylocta-2,4,6-trienoic acid], the “potency profile compared to 9-cis retinoic acid (in words)” value in assay [1] was “superior potency profile”.

For `COc1c(C(C)(C)C)cc(/C(C)=C/C=C/C(C)=C/C(=O)O)cc1C(C)(C)C` [Compound 47, (2E, 4E, 6E) -3-Methyl-7-(3,5-di-t-butyl-4-methoxyphenyl)octa-2,4,6-trienoic acid], in assay [4], the “RAR activity (in words)” value is recorded as “extremely potent RAR active compounds”; the “RAR isoform selectivity (in words)” value was “selectivity on RARβ and RARγ”. With `COC(/C=C/C=C(\C)c1ccc(C(C)(C)C)cc1)=C/C(=O)O` [D, (2E,4E,6E)-3-methoxy-7-(4-t-butylphenyl)octa-2,4,6-trienoic acid], in assay [1], the “activity on any” value is given as “no, or virtually no, activity”.
